Data as given in patent US8629158B2, “Azabicycloalkane-indole and azabicycloalkane-pyrrolo-pyridine MCH-1 antagonists, methods of making, and use thereof” (Albany Molecular Research, Inc., priority 2009, dated 2014).
Structures can show the parent of a compound that is named as a salt. Where two headings read alike, the source gives them in different places.

Tests used:
[1] = target: human MCH-1 receptor (Homo sapiens (Human), UniProt Q99705); experiment: Binding Assay for Human Melanin-Concentrating Hormone (MCH-1) Receptor (radioligand displacement, CHO-K1 membranes); conditions: membranes from CHO-K1 cells expressing human MCH1 receptor, [3H]-labeled radioligand, Ki from IC50 by Cheng Prusoff
Procedure: Evaluation of the affinity of compounds for the human MCH-1 receptor was accomplished using 4-(3,4,5-tritritiumbenzyloxy)-1-(1-(2-(pyrrolidin-1-yl)ethyl)-1H-indazol-5-yl)pyridin-2(1H)-one and membranes prepared from stable CHO-K1 cells expressing the human MCH1 receptor obtained from Euroscreen (Batch 1138). Cell membrane homogenates (8.92 μg protein) were incubated for 60 min at 25° C. with […] of the [^3H]-labeled compound in the absence or presence of the test compound in 50 mM Tris-HCl buffer, pH 7.4. Nonspecific binding was determined in the presence of 50 μM 1-(5-(4-cyanophenyl)bicyclo[3.1.0]hexan-2-yl)-3-(4-fluoro-3-(trifluoromethyl)phenyl)-1-(3-(4-methylpiperazin-1-yl)propyl)urea. Following incubation, the samples were filtered rapidly under vacuum through Skatron 11731 filters, pre-soaked in 0.5% polyethylenimine, and washed with ice-cold 50 mM Tris-HCl buffer, pH 7.4, (wash setting 9,9,0) using a Skatron cell harvester. The filters were counted for radioactivity in a liquid scintillation counter (Tri-Carb 2100TR, Packard) using a scintillation cocktail (Ultima Gold MV, Perkin Elmer).
The results are expressed as a percent inhibition of the control radioligand specific binding. The IC50 value (concentration causing a half-maximal inhibition of control specific binding) and Hill coefficient (nH) were determined by non-linear regression analysis of the competition curve using Hill equation curve fitting. The inhibition constant (Ki) was calculated from the Cheng Prusoff equation: (Ki=IC50/(1+(L/KD)), where L=concentration of radioligand in the assay, and KD=affinity of the radioligand for the receptor.

human MCH-1 receptor, sequence (Q99705 whole entry): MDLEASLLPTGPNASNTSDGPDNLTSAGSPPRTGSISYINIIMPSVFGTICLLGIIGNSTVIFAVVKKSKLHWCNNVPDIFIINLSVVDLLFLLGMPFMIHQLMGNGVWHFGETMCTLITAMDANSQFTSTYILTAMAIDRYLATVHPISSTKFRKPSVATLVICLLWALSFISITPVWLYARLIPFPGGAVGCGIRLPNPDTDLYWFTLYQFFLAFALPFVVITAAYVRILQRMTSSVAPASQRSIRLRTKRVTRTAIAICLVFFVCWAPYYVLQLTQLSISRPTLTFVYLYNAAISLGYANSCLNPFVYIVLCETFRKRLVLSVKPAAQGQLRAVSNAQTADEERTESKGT

Compound	melting point	Ki ([1]; read-out: MCH-1 Ki) [nM]	Ki ([1]; MCH-1 Ki (nM)) [nM]
Cn1c2c(c3ccc(-n4ccc(-c5ccc(C(F)(F)F)nc5)cc4=O)cc31)C1CCC(C2)N1 (centres unmarked) (as salt: hydrochloride) [Example 5, 1-(5-Methyl-5,6,7,8,9,10-hexahydro-7,10-iminocyclohept[b]indol-3-yl)-4-(6-(trifluoromethyl)pyridin-3-yl)pyridin-2(1H)-one dihydrochloride]	228 to 233 °C	–	–
Cl.Cn1c2c(c3ccc(-n4ccc(OCc5ccccc5)cc4=O)nc31)C1CCCC(C2)N1 (centres unmarked) [Example 41, 4-(Benzyloxy)-1-(11-methyl-5,6,7,8,9,10-hexahydro-5,9-imino-11H-cycloocta[4,5]pyrrolo[2,3-b]pyridin-2-yl)pyridin-2(1H)-one hydrochloride]	191 to 206 °C	30	–
Cc1ccc(COc2cnn(-c3ccc4c5c(n(C)c4c3)CC3CCCC5N3)c(=O)c2)cn1.Cl (centres unmarked) [Example 18, 2-(5-Methyl-6,7,8,9,10,11-hexahydro-7,11-imino-5H-cyclooct[b]indol-3-yl)-5-((6-methylpyridin-3-yl)methoxy)pyridazin-3(2H)-one hydrochloride]	190 to 200 °C	73	–
Cl.Cn1c2c(c3ccc(-n4ccc(-c5ccc(C(F)(F)F)nn5)cc4=O)cc31)C1CCC(C2)N1 (centres unmarked) [Example 3, 1-(5-Methyl-5,6,7,8,9,10-hexahydro-7,10-iminocyclohept[b]indol-3-yl)-4-(6-(trifluoromethyl)pyridazin-3-yl)pyridin-2(1H)-one hydrochloride]	235 to 245 °C	24.4	–
CN1C2CCCC1c1c(n(C)c3cc(-n4ccc(OCc5ccccc5)cc4=O)ccc13)C2.Cl (centres unmarked) [Example 31, 4-(Benzyloxy)-1-(5,12-dimethyl-6,7,8,9,10,11-hexahydro-7,11-imino-5H-cyclooct[b]indol-3-yl)pyridin-2(1H)-one hydrochloride]	161 to 180 °C	14	–
Cl.O=c1cc(OCc2ccccc2)ccn1-c1ccc2c3c([nH]c2c1)CC1CCC3N1 (centres unmarked) [Example 8, 4-(Benzyloxy)-1-(5,6,7,8,9,10-hexahydro-7,10-iminocyclohept[b]indol-3-yl)pyridin-2(1H)-one hydrochloride]	209 to 214 °C	9.8	–
CN1C2CCC1c1c(n(C)c3cc(-n4ccc(OCc5ccccc5)cc4=O)ccc13)C2.Cl (centres unmarked) [Example 26, 4-(Benzyloxy)-1-(5,11-dimethyl-5,6,7,8,9,10-hexahydro-7,10-iminocyclohept[b]indol-3-yl)pyridin-2(1H)-one hydrochloride]	121 to 128 °C	9.7	–
Cl.O=c1cc(OCc2ccccc2)ccn1-c1ccc2c3c([nH]c2c1)CC1CCC3N1 (single isomer, unassigned; enantiomer a) [Example 21, (+)-4-(Benzyloxy)-1-(5,6,7,8,9,10-hexahydro-7,10-iminocyclohept[b]indol-3-yl)pyridin-2(1H)-one hydrochloride (Enantiomer A)]	211 to 212 °C	–	39
Cl.O=c1cc(OCc2ccccn2)ccn1-c1ccc2c3c([nH]c2c1)CC1CCC3N1 (centres unmarked) [Example 22, 1-(5,6,7,8,9,10-Hexahydro-7,10-iminocyclohept[b]indol-3-yl)-4-((pyridin-2-yl)methoxy)pyridin-2(1H)-one hydrochloride]	220 to 230 °C	25	–
Cn1c2c(c3ccc(-n4ccc(OCc5ccc(F)cn5)cc4=O)cc31)C1CCC(C2)N1 (centres unmarked) (as salt: hydrochloride) [Example 6, 4-((5-Fluoropyridin-2-yl)methoxy)-1-(5-methyl-5,6,7,8,9,10-hexahydro-7,10-iminocyclohept[b]indol-3-yl)pyridin-2(1H)-one dihydrochloride]	180 to 190 °C	–	–
O=c1cc(OCc2ccc(F)cn2)ccn1-c1ccc2c3c([nH]c2c1)CC1CCC3N1 (centres unmarked) (as salt: hydrochloride) [Example 9, 4-((5-Fluoropyridin-2-yl)methoxy)-1-(5,6,7,8,9,10-hexahydro-7,10-iminocyclohept[b]indol-3-yl)pyridin-2(1H)-one dihydrochloride]	205 to 211 °C (dec.)	–	–
Cl.O=c1cc(-c2ccc(C(F)(F)F)nc2)ccn1-c1ccc2c3c([nH]c2c1)CC1CCC3N1 (centres unmarked) [Example 10, 1-(5,6,7,8,9,10-Hexahydro-7,10-iminocyclohept[b]indol-3-yl)-4-(6-(trifluoromethyl)pyridin-3-yl)pyridin-2(1H)-one hydrochloride]	215 to 235 °C (dec.)	22.7	–
Cl.Cn1c2c(c3ccc(-n4ccc(OCc5ccc(F)cn5)cc4=O)nc31)C1CCCC(C2)N1 (centres unmarked) [Example 40, 4-((5-Fluoropyridin-2-yl)methoxy)-1-(11-methyl-5,6,7,8,9,10-hexahydro-5,9-imino-11H-cycloocta[4,5]pyrrolo[2,3-b]pyridin-2-yl)pyridin-2(1H)-one hydrochloride]	170 to 180 °C	49	–
Cl.Cn1c2c(c3ccc(-n4ccc(OCc5ccccn5)cc4=O)cc31)C1CCC(C2)N1 (centres unmarked) [Example 23, 1-(5-Methyl-6,7,8,9,10-hexahydro-7,10-iminocyclohept[b]indol-3-yl)-4-((pyridin-2-yl)methoxy)pyridin-2(1H)-one hydrochloride]	175 to 195 °C	17	–
CC(=O)N1C2CCC1c1c([nH]c3cc(-n4ccc(OCc5ccccc5)cc4=O)ccc13)C2 (single isomer, unassigned; enantiomer a) (as salt: hydrochloride) [Example 30, 1-(11-Acetyl-5,6,7,8,9,10-hexahydro-7,10-iminocyclohept[b]indol-3-yl)-4-(benzyloxy)pyridin-2(1H)-one hydrochloride (Enantiomer A)]	140 to 170 °C	–	–
Cn1c2c(c3ccc(-n4ccc(OCc5ccccc5)cc4=O)nc31)C1CCC(C2)N1 (centres unmarked) [Example 39, 4-(Benzyloxy)-1-(10-methyl-5,6,7,8,9,10-hexahydro-5,8-iminocyclohepta[4,5]pyrrolo[2,3-b]pyridin-2-yl)pyridin-2(1H)-one hydrochloride]	–	21	–
Cn1c2c(c3ccc(-n4ccc(OCc5ccccc5)cc4=O)cc31)C1CCC(C2)N1 (single isomer, unassigned; enantiomer b) [Example 15, 4-(Benzyloxy)-1-(5-methyl-5,6,7,8,9,10-hexahydro-7,10-iminocyclohept[b]indol-3-yl)pyridin-2(1H)-one hydrochloride (Enantiomer B)]	–	–	7.8
Cn1c2c(c3ccc(-n4ccc(OCc5ccccc5)cc4=O)cc31)C1CCC(C2)N1 (centres unmarked) [Example 2, 4-(Benzyloxy)-1-(5-methyl-5,6,7,8,9,10-hexahydro-7,10-iminocyclohept[b]indol-3-yl)pyridin-2(1H)-one hydrochloride]	–	10.5	–
Cn1c2c(c3ccc(N4CCN(CCc5ccc(Cl)cc5)CC4=O)nc31)C1CCC(C2)N1 (centres unmarked) [Example 46, 4-(4-Chlorophenethyl)-1-(10-methyl-5,6,7,8,9,10-hexahydro-5,8-iminocyclohepta[4,5]pyrrolo[2,3-b]pyridin-2-yl)-piperazin-2-one dihydrochloride]	–	99	–
CC(=O)N1C2CCC1c1c([nH]c3cc(-n4ccc(OCc5ccccc5)cc4=O)ccc13)C2 (single isomer, unassigned; enantiomer a) [Example 30, 1-(11-Acetyl-5,6,7,8,9,10-hexahydro-7,10-iminocyclohept[b]indol-3-yl)-4-(benzyloxy)pyridin-2(1H)-one hydrochloride (Enantiomer A)]	–	–	97
Cn1c2c(c3ccc(-n4ccc(OCc5ccc(C(F)(F)F)nc5)cc4=O)cc31)C1CCC(C2)N1 (single isomer, unassigned; enantiomer b) [Example 38, 1-(5-Methyl-5,6,7,8,9,10-hexahydro-7,10-iminocyclohept[b]indol-3-yl)-4-((6-(trifluoromethyl)pyridin-3-yl)methoxy)pyridin-2(1H)-one hydrochloride (Enantiomer B)]	–	–	12
Cn1c2c(c3ccc(-n4ccc(OCc5ccc(F)cn5)cc4=O)cc31)C1CCC(C2)N1 (centres unmarked) [Example 6, 4-((5-Fluoropyridin-2-yl)methoxy)-1-(5-methyl-5,6,7,8,9,10-hexahydro-7,10-iminocyclohept[b]indol-3-yl)pyridin-2(1H)-one dihydrochloride]	–	13.5	–
Cn1c2c(c3ccc(-n4ccc(-c5ccc(C(F)(F)F)cn5)cc4=O)cc31)C1CCC(C2)N1 (single isomer, unassigned; enantiomer b) [Example 16, 1-(5-Methyl-5,6,7,8,9,10-hexahydro-7,10-iminocyclohept[b]indol-3-yl)-4-(5-(trifluoromethyl)pyridin-2-yl)pyridin-2(1H)-one hydrochloride (Enantiomer B)]	–	14	–
Cn1c2c(c3ccc(-n4ncc(OCc5ccc(F)cn5)cc4=O)cc31)C1CCCC(C2)N1 (centres unmarked) [Example 17, 5-((5-Fluoropyridin-2-yl)methoxy)-2-(5-methyl-6,7,8,9,10,11-hexahydro-7,11-imino-5H-cyclooct[b]indol-3-yl)pyridazin-3(2H)-one hydrochloride]	–	28	–
